Results on one compound are retold here after patent US20110217300A1, “Quinazolinone Compounds and Methods of Use Thereof” (priority 2007, published 2011).

For one data set, the system named is A427. Put plainly: MTS cell viability assay. The format is cell-based. To be noted: Homo sapiens, A-427, Lung Carcinoma. As to the method:
(§1) Cell viability was determined by measuring the activity of dehydrogenase enzymes in metabolically active cells using a tetrazolium compound, MTS. The assay was performed as described in Promega Technical Bulletin No. 169 (CellTiter 96 Aqueous Non-Radioactive Cell Proliferation Assay). Two human cancer cell lines were assayed (see, Table 1). Cells were maintained at 37° C. and 5% CO2 in DMEM media (4.5 g/L glucose) supplemented with 10% heat-inactivated FBS, 10 mM L-glutamine, and 10 mM Hepes pH 7.5. Briefly, cells were seeded in 96-well plates as set forth in Table 1 and incubated for 16-24 hours. Candidate compounds were serially diluted in DMSO, further diluted in cell culture media, and then added to cells (final DMSO concentration of 0.33%). Cells were incubated in the presence of candidate compound for 72 hours. MTS stock solution (MTS 2 gm/L, PMS […] in PBS) was added to the cells (final concentration MTS […] and PMS 7.67 mg/L) and incubated for 4 hours. SDS was added to a final concentration of 1.4% and absorbance at 490 nm was measured within two hours using a plate reader. […] GI50 values were given in Table 2 for the compounds listed. The Compound Numbers in Table 2 correspond to the numbers listed parenthetically in the Example titles. Where multiple measurements were made by different technicians, both values are given.
(§2) Cell viability was determined for N-(3-amino-propyl)-3-chloro-N—[(R)-1-(7-chloro-4-oxo-3-phenylamino-3,4-dihydro-quinazolin-2-yl)-but-3-ynyl]-2-fluoro-benzamide (compound I of Table 2). The cell viability assay of Example 105 was used. GI50 was determined using a variety of cell lines. Cells were plated at 100-5000 cells per well. At least 2 replicates were performed. Where multiple measurements were made by different technicians, both values are given.

Another data set relates to CALU-6. The data set is described as follows: MTS cell viability assay. To be noted: Homo sapiens, lung. The format is cell-based. As for the experimental part: as §1, §2
The test system of the next data set is COLO-205. The data set is described as follows: MTS cell viability assay. The format is cell-based. To be noted: Homo sapiens, colon. As for the experimental part: as §1, §2
The test system of the next data set is HPAF-II. Put plainly: MTS cell viability assay. It counts as cell-based. To be noted: Homo sapiens, pancreas. As for the experimental part: as §1, §2
For a further data set, the system named is KG-1a. Put plainly: MTS cell viability assay. The format is cell-based. To be noted: Homo sapiens, AML. As for the experimental part:
as §1, §2

Another data set has as its system LS411N. Put plainly: MTS cell viability assay. To be noted: Homo sapiens, LS-411N, colon. It counts as cell-based. As for the experimental part: as §1, §2
For orientation: Formazan colour is commonly taken as a measure of viable cells.

The next data set deals with PACA2 tumor xenografts. The data set is described as follows: PACA2 tumor xenograft efficacy study (Example 107). It counts as in vivo, mice. To be noted: 3 mg/kg or 12.5 mg/kg intraperitoneally 3x weekly. As for the experimental part:
Six weeks old female athymic nude mice (NCR nu/nu) received from Charles River Laboratory, acclimated to the animal housing facility for one week before initiation of the study. Mice were housed in sterile cages of 4 each with autoclaved bedding, provided with autoclaved food and water ad libitum. Efficacy studies were performed in athymic mice bearing PACA2 tumor xenografts to determine the effect of compound on tumor growth. Tumor cells (1×10^7 PACA2 cells/animal) were inoculated subcutaneously on day 0. Tumor dimensions were measured three times weekly by a digital microcaliper, and tumor volumes were calculated as length×width^2/2. When tumors reached a volume of ˜300 mm^3, mice were randomized into groups and treated 3× weekly (Monday-Wednesday-Friday, followed by a 2-day dosing holiday) intraperitoneally. With either vehicle control or 3 mg/kg and 12.5 mg/kg compound formulated in DMA/PEG400/water (20:40:40). Results are expressed as mean tumor volume±SE. To assess differences in tumor size between groups, student's t test was performed and significance was assessed for p values <0.05. Tumor size was evaluated periodically during treatment at the indicated days post-inoculation. Results are represented as the mean of tumor volume in mm^3±SE of several tumors (n=10) in function of the treatment period. […] (See FIG. 1B).

A further data set deals with SK-OV-3 xenograft. The data set is described as follows: Xenograft model. The format is in vivo, mice. To be noted: SK-OV-3, Ovary; procedures and dosages of Examples 106-108.
The next data set deals with MIA-PaCa2 xenograft. The data set is described as follows: Xenograft model. To be noted: MIA-PaCa2, Pancreas; procedures and dosages of Examples 106-108. The format is in vivo, mice. As for the experimental part:
Six-week old female athymic nude mice (NCR nu/nu; Charles River Laboratory, Wilmington, Mass.) were acclimated to the animal housing facility for at least 1 week before the study. Efficacy studies were performed in athymic mice bearing PACA2 tumor xenografts to determine the effect of compound on tumor growth. Tumor cells (1×10^7 PACA2 cells/animal) were inoculated subcutaneously on day 0. Tumor dimensions were measured by a digital microcaliper, and tumor volumes were calculated as length×width^2/2. […] Results are expressed as mean tumor volume±SE. To assess differences in tumor size between groups, a Mann-Whitney non-parametric t test was performed and significance was assessed for p values <0.05. Tumor size was evaluated periodically during treatment at the indicated days post-inoculation. […]
Six weeks old female athymic nude mice (NCR nu/nu) received from Charles River Laboratory, acclimated to the animal housing facility for one week before initiation of the study. […] Tumor dimensions were measured three times weekly by a digital microcaliper, and tumor volumes were calculated as length×width^2/2. […] Results are expressed as mean tumor volume±SE. To assess differences in tumor size between groups, student's t test was performed and significance was assessed for p values <0.05. Tumor size was evaluated periodically during treatment at the indicated days post-inoculation. […]

Another data set has as its system DU145 xenograft. Put plainly: Xenograft model. It counts as in vivo, mice. To be noted: DU145, Prostate; procedures and dosages of Examples 106-108.
The test system of a further data set is A375 xenograft. The data set is described as follows: Xenograft model. It counts as in vivo, mice. To be noted: A375, Skin; procedures and dosages of Examples 106-108.

As to `C#CC[C@H](c1nc2cc(Cl)ccc2c(=O)n1Nc1ccccc1)N(CCCN)C(=O)c1cccc(Cl)c1F` [Compound 1, N-(3-Amino-propyl)-3-chloro-N—[(R)-1-(7-chloro-4-oxo-3-phenylamino-3,4-dihydro-quinazolin-2-yl)-but-3-ynyl]-2-fluoro-benzamide], the GI50 (as a rule, the concentration giving 50% growth inhibition) in the data set on A427 turned out to be 64 nM; with CALU-6 it was 105 nM; with COLO-205, 106 nM; in the data set with HPAF-II, 2060 nM; in the data set on KG-1a, 3200 nM; in the data set with LS411N, 237 nM. Moreover, the tolerability of doses entry with PACA2 tumor xenografts (PACA2 xenograft mice) is given as “well-tolerated”. Also, the “tumor growth compared to the vehicle control group” value in the data set on PACA2 tumor xenografts (tumors ~300 mm^3 at start, FIG. 1B) is listed as “Significant reductions in tumor growth”. Besides, the “Xenograft Outcome (approximate percent growth inhibition)” value in the data set on SK-OV-3 xenograft is about 50%; in the data set on MIA-PaCa2 xenograft it was about 90%; in the data set on DU145 xenograft, about 75%; in the data set on A375 xenograft it was “small”.
